Measured values as given in publication PMC12121777 (PLOS One, 2025).
Values after ≈ are worked out from the molar mass of the structure shown. Like-named read-outs stand apart in the source and are kept apart here.

Tests used:
Assay in all cases: microbe, parasite or virus in culture
Format in all cases: cell-based
Mtb Praha 131 = details: Mycobacterium tuberculosis, read-out: MIC Mtb Praha 131
Mtb Praha 4 = details: Mycobacterium tuberculosis, read-out: MIC Mtb Praha 4
Mtb 7357/1998 = details: Mycobacterium tuberculosis, read-out: MIC Mtb 7357/1998
Mtb 234/2005 = details: Mycobacterium tuberculosis, read-out: MIC Mtb 234/2005
Mtb 9449/2007 = details: Mycobacterium tuberculosis, read-out: MIC Mtb 9449/2007
Mtb Praha 1 = details: Mycobacterium tuberculosis, read-out: MIC Mtb Praha 1
Mtb 8666/2010 = details: Mycobacterium tuberculosis, read-out: MIC Mtb 8666/2010

Row | Compound | MIC (Mtb Praha 131; PRAHA131, 336 h) [µM] | MIC (Mtb Praha 131; PRAHA131, 504 h) [µM] | MIC (Mtb Praha 4; PRAHA4, 336 h) [µM] | MIC (Mtb Praha 4; PRAHA4, 504 h) [µM] | MIC (Mtb 7357/1998; 7357/1998, 336 h) [µM] | MIC (Mtb 7357/1998; 7357/1998, 504 h) [µM] | MIC (Mtb 234/2005; 234/2005, 336 h) [µM] | MIC (Mtb 234/2005; 234/2005, 504 h) [µM] | MIC (Mtb 9449/2007; 9449/2007, 336 h) [µM] | MIC (Mtb 9449/2007; 9449/2007, 504 h) [µM] | MIC (Mtb Praha 1; PRAHA1, 336 h) [µM] | MIC (Mtb Praha 1; PRAHA1, 504 h) [µM] | MIC (Mtb 8666/2010; 8666/2010, 336 h) [µM] | MIC (Mtb 8666/2010; 8666/2010, 504 h) [µM]
1 | CCCCCCCCCNC(=O)NNC(=O)c1cc([N+](=O)[O-])cc([N+](=O)[O-])c1 [Compound 4i, 2-(3,5-Dinitrobenzoyl)-N-nonylhydrazine-1-carboxamide] | 1 (≈ 0.395 µg/mL) | 2 (≈ 0.791 µg/mL) | 1 (≈ 0.395 µg/mL) | 1 (≈ 0.395 µg/mL) | 1 (≈ 0.395 µg/mL) | 1 (≈ 0.395 µg/mL) | 1 (≈ 0.395 µg/mL) | 2 (≈ 0.791 µg/mL) | 1 (≈ 0.395 µg/mL) | 1 (≈ 0.395 µg/mL) | 1 (≈ 0.395 µg/mL) | 2 (≈ 0.791 µg/mL) | 1 (≈ 0.395 µg/mL) | 1 (≈ 0.395 µg/mL)
2 | O=[N+]([O-])c1cc(-c2nnc(NCc3ccc(Cl)cc3Cl)o2)cc([N+](=O)[O-])c1 [Compound 7d, N-(2,4-Dichlorobenzyl)-5-(3,5-dinitrophenyl)-1,3,4-oxadiazol-2-amine] | 0.125 (≈ 0.0513 µg/mL) | 0.125 (≈ 0.0513 µg/mL) | 0.06 (≈ 0.0246 µg/mL) | 0.125 (≈ 0.0513 µg/mL) | 0.125 (≈ 0.0513 µg/mL) | 0.125 (≈ 0.0513 µg/mL) | 0.06 (≈ 0.0246 µg/mL) | 0.125 (≈ 0.0513 µg/mL) | 0.06 (≈ 0.0246 µg/mL) | 0.125 (≈ 0.0513 µg/mL) | 0.125 (≈ 0.0513 µg/mL) | 0.125 (≈ 0.0513 µg/mL) | 0.06 (≈ 0.0246 µg/mL) | 0.125 (≈ 0.0513 µg/mL)
3 | COc1ccc(CNc2nnc(-c3cc([N+](=O)[O-])cc([N+](=O)[O-])c3)s2)cc1 [Compound 8b, 5-(3,5-Dinitrophenyl)-N-(4-methoxybenzyl)-1,3,4-thiadiazol-2-amine] | ≤ 0.03 | ≤ 0.03 | ≤ 0.03 | ≤ 0.03 | ≤ 0.03 | ≤ 0.03 | ≤ 0.03 | ≤ 0.03 | ≤ 0.03 | ≤ 0.03 | ≤ 0.03 | ≤ 0.03 | ≤ 0.03 | ≤ 0.03
4 | CCCCCNc1nnc(-c2cc([N+](=O)[O-])cc([N+](=O)[O-])c2)o1 [Compound 5e, 5-(3,5-Dinitrophenyl)-N-pentyl-1,3,4-oxadiazol-2-amine] | 0.125 (≈ 0.0402 µg/mL) | 0.125 (≈ 0.0402 µg/mL) | 0.125 (≈ 0.0402 µg/mL) | 0.5 (≈ 0.161 µg/mL) | 0.125 (≈ 0.0402 µg/mL) | 0.125 (≈ 0.0402 µg/mL) | 0.125 (≈ 0.0402 µg/mL) | 0.125 (≈ 0.0402 µg/mL) | 0.125 (≈ 0.0402 µg/mL) | 0.125 (≈ 0.0402 µg/mL) | 0.125 (≈ 0.0402 µg/mL) | 0.25 (≈ 0.0803 µg/mL) | 0.125 (≈ 0.0402 µg/mL) | 0.125 (≈ 0.0402 µg/mL)
5 | CCCCCCCCCNc1nnc(-c2cc([N+](=O)[O-])cc([N+](=O)[O-])c2)o1 [Compound 5i, 5-(3,5-Dinitrophenyl)-N-nonyl-1,3,4-oxadiazol-2-amine] | 0.06 (≈ 0.0226 µg/mL) | 0.06 (≈ 0.0226 µg/mL) | 0.125 (≈ 0.0472 µg/mL) | 0.125 (≈ 0.0472 µg/mL) | 0.125 (≈ 0.0472 µg/mL) | 0.125 (≈ 0.0472 µg/mL) | 0.125 (≈ 0.0472 µg/mL) | 0.125 (≈ 0.0472 µg/mL) | 0.06 (≈ 0.0226 µg/mL) | 0.06 (≈ 0.0226 µg/mL) | 0.125 (≈ 0.0472 µg/mL) | 0.125 (≈ 0.0472 µg/mL) | 0.06 (≈ 0.0226 µg/mL) | 0.06 (≈ 0.0226 µg/mL)
6 | CCCCCCCCCCNc1nnc(-c2cc([N+](=O)[O-])cc([N+](=O)[O-])c2)o1 [Compound 5j, N-Decyl-5-(3,5-dinitrophenyl)-1,3,4-oxadiazol-2-amine] | 0.25 (≈ 0.0979 µg/mL) | 0.5 (≈ 0.196 µg/mL) | 0.25 (≈ 0.0979 µg/mL) | 0.5 (≈ 0.196 µg/mL) | 0.25 (≈ 0.0979 µg/mL) | 0.5 (≈ 0.196 µg/mL) | 0.25 (≈ 0.0979 µg/mL) | 0.5 (≈ 0.196 µg/mL) | 0.25 (≈ 0.0979 µg/mL) | 0.5 (≈ 0.196 µg/mL) | 0.25 (≈ 0.0979 µg/mL) | 0.5 (≈ 0.196 µg/mL) | 0.25 (≈ 0.0979 µg/mL) | 0.5 (≈ 0.196 µg/mL)
7 | COc1ccc(CNc2nnc(-c3cc([N+](=O)[O-])cc([N+](=O)[O-])c3)o2)cc1 [Compound 7b, 5-(3,5-Dinitrophenyl)-N-(4-methoxybenzyl)-1,3,4-oxadiazol-2-amine] | ≤ 0.03 | ≤ 0.03 | ≤ 0.03 | ≤ 0.03 | ≤ 0.03 | ≤ 0.03 | ≤ 0.03 | 0.06 (≈ 0.0223 µg/mL) | ≤ 0.03 | ≤ 0.03 | ≤ 0.03 | ≤ 0.03 | ≤ 0.03 | ≤ 0.03
8 | CCCCCCCCNC(=O)NNC(=O)c1cc([N+](=O)[O-])cc([N+](=O)[O-])c1 [Compound 4h, 2-(3,5-Dinitrobenzoyl)-N-octylhydrazine-1-carboxamide] | 1 (≈ 0.381 µg/mL) | 1 (≈ 0.381 µg/mL) | 1 (≈ 0.381 µg/mL) | 1 (≈ 0.381 µg/mL) | 1 (≈ 0.381 µg/mL) | 1 (≈ 0.381 µg/mL) | 1 (≈ 0.381 µg/mL) | 1 (≈ 0.381 µg/mL) | 1 (≈ 0.381 µg/mL) | 1 (≈ 0.381 µg/mL) | 1 (≈ 0.381 µg/mL) | 1 (≈ 0.381 µg/mL) | 1 (≈ 0.381 µg/mL) | 1 (≈ 0.381 µg/mL)
